These results are taken from patent US8598344B2, “CDKI pathway inhibitors and uses thereof” (Senex Biotechnology, priority 2009, dated 2013).

Bounds are passed on as bounds.

A word on the IC50: it is the concentration that inhibits the measured activity by half.

T1 sequence (P49760 whole entry): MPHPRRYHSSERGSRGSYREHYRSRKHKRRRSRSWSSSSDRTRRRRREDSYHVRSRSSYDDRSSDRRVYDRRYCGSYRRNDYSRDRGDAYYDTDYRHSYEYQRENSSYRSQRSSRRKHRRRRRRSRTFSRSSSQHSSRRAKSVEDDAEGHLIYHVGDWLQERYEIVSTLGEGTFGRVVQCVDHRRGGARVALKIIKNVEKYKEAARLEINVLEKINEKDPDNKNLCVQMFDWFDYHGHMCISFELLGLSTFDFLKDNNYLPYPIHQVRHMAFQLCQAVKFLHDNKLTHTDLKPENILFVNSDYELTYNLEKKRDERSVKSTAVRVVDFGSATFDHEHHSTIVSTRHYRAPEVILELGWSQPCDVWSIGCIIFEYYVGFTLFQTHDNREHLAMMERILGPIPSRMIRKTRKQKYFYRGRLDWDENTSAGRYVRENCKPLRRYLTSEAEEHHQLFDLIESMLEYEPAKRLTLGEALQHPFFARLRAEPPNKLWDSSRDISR
T4 sequence (O75716 whole entry): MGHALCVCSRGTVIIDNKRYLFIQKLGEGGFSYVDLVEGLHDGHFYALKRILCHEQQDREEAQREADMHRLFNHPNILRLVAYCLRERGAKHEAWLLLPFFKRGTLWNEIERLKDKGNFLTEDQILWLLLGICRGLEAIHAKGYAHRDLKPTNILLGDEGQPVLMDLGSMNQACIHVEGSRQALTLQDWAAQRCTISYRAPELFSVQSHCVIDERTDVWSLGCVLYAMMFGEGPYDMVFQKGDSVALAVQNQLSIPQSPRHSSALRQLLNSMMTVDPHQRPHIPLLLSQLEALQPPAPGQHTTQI

One experiment has as its system induction of transcription by p21 (CDKI pathway, CMV promoter-GFP) in HT1080 fibrosarcoma cells. The experiment in a line: Cellular assay for CDKI pathway inhibition: CMV-GFP induction by IPTG-inducible p21 in HT1080 reporter cells. As to conditions: Table 1; IC50 calculated on the basis of the maximal inhibition produced by the highest doses; IPTG mode (50 μM or 2 μM) not stated; read-out: Cell-based assay (IC50). In kind it is cell-based, human. As to the method: Briefly, the reporter cell line described in the above-referenced application, which carries IPTG (isopropyl-β-thio-galactoside)-inducible p21 gene together with a p21-inducible promoter driving the expression of Green Fluorescent Protein (GFP) was plated in 96-well plates, at 2000 cells per well for the no-IPTG arm of the assay and at 5000 cells per well for the IPTG arm of the assay. To induce the maximal levels of p21, IPTG was added to 50 μM concentration. Serial 2-fold dilutions of the tested compounds were added in quadruplicates to wells with and without IPTG, ˜10 min after IPTG addition.
This assay is based on the induction of green fluorescent protein (GFP) expression from the cytomegalovirus (CMV) promoter in human HT1080 fibrosarcoma cells that express CDKI p21 from an isopropyl-(3-thio-galactoside (IPTG)-inducible promoter. The compound activity as a CDKI pathway inhibitor is measured by its ability to prevent the stimulation of the CMV promoter upon the addition of p21-inducing IPTG. CMV promoter activity is measured by the ratio of GFP fluorescence to the relative cell number, as determined by staining cellular DNA with Hoechst 33342. This assay was conducted in two modes. […]
As to `N#Cc1ccc2ncnc(NCCc3ccccc3)c2c1` [compound 1], the IC50 is 0.641 µM.

Take `N#Cc1ccc2ncnc(NCc3ccc(Cl)cc3)c2c1` [compound 20]: the IC50 is 0.199 µM.

`N#Cc1ccc2ncnc(NCCc3ccc4ccccc4c3)c2c1` [compound 26]: the IC50 was 0.769 µM.

For the molecule `N#Cc1ccc2ncnc(NCc3ccc4ccccc4c3)c2c1` [compound 43], the IC50 is 0.22 µM.

On to `N#Cc1ccc2ncnc(NCc3ccc4ccccc4c3)c2c1` [compound 14], for which the IC50 is 2.54 µM.

Staying with this experiment, now noted: Table 2; calculated assuming maximal effect = zero GFP/Hoechst; no unit in table, μM from FIG. 8 legend; no activity at 40 μM given as >100; read-out: IC50 in the cellular assay.
As for `N#Cc1ccc2ncnc(NCCc3ccccc3)c2c1` [compound 1], the IC50 is 1.3 µM.

For the molecule `N#Cc1ccc2ncnc(NCc3ccc(Cl)cc3)c2c1` [compound 20], the IC50 was 0.6 µM.

`COc1ccc2ncnc(NCCc3ccccc3)c2c1` [compound 44]: the IC50 was 11 µM.

Regarding `N#Cc1ccc2ncnc(NCCc3ccc4ccccc4c3)c2c1` [compound 26], the IC50 was 1.15 µM.

For the molecule `CC(C)CNc1ncnc2ccc(C(F)(F)F)cc12` [compound 45], the IC50 was 12.8 µM.

Turning to `N#Cc1ccc2ncnc(NCc3ccc4ccccc4c3)c2c1` [compound 43], the IC50 was 0.95 µM.

`CCCNc1ncnc2ccc(N3CCOCC3)cc12` [compound 46]: the IC50 is greater than 100 µM.

On to `N#Cc1ccc2ncnc(NCc3ccc4ccccc4c3)c2c1` [compound 14], for which the IC50 is 1.2 µM.

The experiment is the same for the next values; noted with them: read-out: IC50, p21 induced by 8 μM IPTG; 8 μM IPTG, 72 hours.
Turning to `N#Cc1ccc2ncnc(NCCc3ccccc3)c2c1` [compound 1], the half-inhibitory concentration (IC50) amounted to 0.57 µM.

The next experiment concerns the target T1, CLK2 (Homo sapiens, UniProt P49760).
T1 construct: purchased KinomeScan, a division of Ambit Biosciences
The experiment in a line: KinomeScan competition binding assay. As to conditions: 10 μM compound. The text has this:
(§1) This similarity led us to test SNX14 for the ability to inhibit 285 kinases, using the services of KinaseProfiler of Millipore Corporation (285 kinases). […] The KINOMEscan assay has been described in detail in Fabian et al., Nat. Biotechnol. 23: 329 (2005) and Karaman et al., Nat. Biotechnol. 26: 127 (2008).
(§2) The KinomeScan assay is based on a competition binding assay that quantitatively measures the ability of a compound to compete with an immobilized, ATP site directed ligand. The assay is performed by combining three components: DNA-tagged kinase; immobilized ligand; and a test compound. The ability of the test compound to compete with the immobilized ligand is measured via quantitative PCR of the DNA tag. […] The CDKs tested by Millipore for inhibition with SNX14 included CDK1, CDK2, CDK3, CDK5, CDK7 and CDK9; none of these were inhibited to less than 49 percent of control (POC) activity. The CDKs tested by KinomeScan for the effect of Compound 1 included CDK2, CDK3, CDK4, CDK5, CDK7, CDK8, CDK9 and CDK19; aside from CDK8 and CDK19, the strongest inhibited CDK was CDK7 (33% POC binding). To determine the inhibition of which kinases correlates with the biological activity of SNX2-class compounds, we tested eight additional compounds of the SNX2 family, which gave different IC50 values in the cellular assays, for the ability to affect 24 kinases that were most susceptible to compound 1, through the services of KinomeScan. […] We have also determined the binding constant (Kd) for SNX14, compound 1, compound 20, compound 26, compound 43 and compound 14 in kinase assays for CDK8 and CDK19 (Table 1).
As to `N#Cc1ccc2ncnc(NCCc3ccccc3)c2c1` [compound 1], the “POC ligand binding, CLK2” value came out at 3.8 POC.

Consider `N#Cc1ccc2ncnc(NCc3ccc(Cl)cc3)c2c1` [compound 20], for which the “POC ligand binding, CLK2” value is on record as 16 POC.

In the case of `COc1ccc2ncnc(NCCc3ccccc3)c2c1` [compound 44], the “POC ligand binding, CLK2” value is 34 POC.

Consider `N#Cc1ccc2ncnc(NCCc3ccc4ccccc4c3)c2c1` [compound 26], for which the “POC ligand binding, CLK2” value was found to be 58 POC.

`CC(C)CNc1ncnc2ccc(C(F)(F)F)cc12` [compound 45]: the “POC ligand binding, CLK2” value was 8.6 POC.

Regarding `CCCNc1ncnc2ccc(N3CCOCC3)cc12` [compound 46], the “POC ligand binding, CLK2” value is on record as 66 POC.

Still in this experiment, the particulars now being: 10 μM compound; 10 µM.
Regarding `N#Cc1ccc2ncnc(NCc3ccc4ccccc4c3)c2c1` [compound 43], the “POC ligand binding, CLK2” value was found to be 9.6 POC.

On to `N#Cc1ccc2ncnc(NCc3ccc4ccccc4c3)c2c1` [compound 14], for which the “POC ligand binding, CLK2” value came out at 24 POC.

A further experiment addresses T2, MAP4K2 (Homo sapiens, UniProt Q12851).
T2 construct: purchased KinomeScan, a division of Ambit Biosciences
T2 sequence (Q12851 1-820): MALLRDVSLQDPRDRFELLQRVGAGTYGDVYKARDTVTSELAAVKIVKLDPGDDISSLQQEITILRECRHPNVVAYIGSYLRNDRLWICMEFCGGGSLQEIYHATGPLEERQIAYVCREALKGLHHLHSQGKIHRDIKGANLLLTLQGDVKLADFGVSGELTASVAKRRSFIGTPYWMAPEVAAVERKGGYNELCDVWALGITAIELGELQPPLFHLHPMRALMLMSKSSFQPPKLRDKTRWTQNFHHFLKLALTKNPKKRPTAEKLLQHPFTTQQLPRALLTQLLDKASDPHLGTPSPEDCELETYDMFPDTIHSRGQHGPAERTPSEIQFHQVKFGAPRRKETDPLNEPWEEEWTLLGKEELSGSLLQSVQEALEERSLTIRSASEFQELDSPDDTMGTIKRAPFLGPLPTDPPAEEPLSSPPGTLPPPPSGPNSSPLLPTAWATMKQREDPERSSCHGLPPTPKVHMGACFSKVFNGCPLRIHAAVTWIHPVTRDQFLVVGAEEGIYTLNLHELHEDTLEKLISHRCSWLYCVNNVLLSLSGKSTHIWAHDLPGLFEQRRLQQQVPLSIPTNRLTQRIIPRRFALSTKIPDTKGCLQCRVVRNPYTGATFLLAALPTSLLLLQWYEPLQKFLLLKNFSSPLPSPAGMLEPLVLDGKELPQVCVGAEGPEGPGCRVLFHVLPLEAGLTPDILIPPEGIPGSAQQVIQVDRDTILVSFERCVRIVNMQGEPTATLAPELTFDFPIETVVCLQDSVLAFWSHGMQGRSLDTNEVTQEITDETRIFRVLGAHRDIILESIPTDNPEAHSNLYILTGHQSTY
As to the kind of experiment: KinomeScan competition binding assay. As to conditions: 10 μM compound.
Description: as §1, §2
For the molecule `N#Cc1ccc2ncnc(NCCc3ccccc3)c2c1` [compound 1], the “POC ligand binding, MAP4K2” value is recorded as 12 POC.

As for `N#Cc1ccc2ncnc(NCc3ccc(Cl)cc3)c2c1` [compound 20], the “POC ligand binding, MAP4K2” value came to 21 POC.

`COc1ccc2ncnc(NCCc3ccccc3)c2c1` [compound 44]: the “POC ligand binding, MAP4K2” value stood at 35 POC.

As to `N#Cc1ccc2ncnc(NCCc3ccc4ccccc4c3)c2c1` [compound 26], the “POC ligand binding, MAP4K2” value worked out at 28 POC.

As to `CC(C)CNc1ncnc2ccc(C(F)(F)F)cc12` [compound 45], the “POC ligand binding, MAP4K2” value is given as 12 POC.

On to `CCCNc1ncnc2ccc(N3CCOCC3)cc12` [compound 46], for which the “POC ligand binding, MAP4K2” value is reported as 82 POC.

The experiment is the same for the next values; noted with them: 10 μM compound; 10 µM.
As for `N#Cc1ccc2ncnc(NCc3ccc4ccccc4c3)c2c1` [compound 43], the “POC ligand binding, MAP4K2” value is recorded as 28 POC.

Turning to `N#Cc1ccc2ncnc(NCc3ccc4ccccc4c3)c2c1` [compound 14], the “POC ligand binding, MAP4K2” value is 16 POC.

A further experiment concerns the target T3, MEK3 (Homo sapiens, UniProt P46734).
T3 construct: purchased KinomeScan, a division of Ambit Biosciences
T3 sequence (P46734 1-347): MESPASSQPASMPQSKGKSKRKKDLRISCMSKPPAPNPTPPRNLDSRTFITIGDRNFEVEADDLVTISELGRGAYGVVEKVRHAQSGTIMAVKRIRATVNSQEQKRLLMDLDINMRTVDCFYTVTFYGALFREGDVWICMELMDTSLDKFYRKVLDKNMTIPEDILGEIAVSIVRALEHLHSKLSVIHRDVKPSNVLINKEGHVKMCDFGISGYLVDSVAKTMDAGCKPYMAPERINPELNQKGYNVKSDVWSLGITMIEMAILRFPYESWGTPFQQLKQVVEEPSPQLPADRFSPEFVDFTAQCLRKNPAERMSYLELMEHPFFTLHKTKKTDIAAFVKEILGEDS
As to the kind of experiment: KinomeScan competition binding assay. As to conditions: 10 μM compound.
Description: as §1, §2
Regarding `N#Cc1ccc2ncnc(NCCc3ccccc3)c2c1` [compound 1], the “POC ligand binding, MEK3” value is 18 POC.

Turning to `N#Cc1ccc2ncnc(NCc3ccc(Cl)cc3)c2c1` [compound 20], the “POC ligand binding, MEK3” value came to 76 POC.

For `COc1ccc2ncnc(NCCc3ccccc3)c2c1` [compound 44], the “POC ligand binding, MEK3” value turned out to be 72 POC.

With `N#Cc1ccc2ncnc(NCCc3ccc4ccccc4c3)c2c1` [compound 26], the “POC ligand binding, MEK3” value came to 78 POC.

On to `CC(C)CNc1ncnc2ccc(C(F)(F)F)cc12` [compound 45], for which the “POC ligand binding, MEK3” value came out at 71 POC.

For `CCCNc1ncnc2ccc(N3CCOCC3)cc12` [compound 46], the “POC ligand binding, MEK3” value worked out at 100 POC.

The experiment is the same for the next values; noted with them: 10 μM compound; 10 µM.
In the case of `N#Cc1ccc2ncnc(NCc3ccc4ccccc4c3)c2c1` [compound 43], the “POC ligand binding, MEK3” value is reported as 64 POC.

For `N#Cc1ccc2ncnc(NCc3ccc4ccccc4c3)c2c1` [compound 14], the “POC ligand binding, MEK3” value was 29 POC.

A further experiment concerns the target T4, STK16 (Homo sapiens, UniProt O75716).
T4 construct: purchased KinomeScan, a division of Ambit Biosciences
The experiment in a line: KinomeScan competition binding assay. As to conditions: 10 μM compound.
Description: as §1, §2
With `N#Cc1ccc2ncnc(NCCc3ccccc3)c2c1` [compound 1], the “POC ligand binding, STK16” value was found to be 4.2 POC.

As for `N#Cc1ccc2ncnc(NCc3ccc(Cl)cc3)c2c1` [compound 20], the “POC ligand binding, STK16” value came out at 25 POC.

Take `COc1ccc2ncnc(NCCc3ccccc3)c2c1` [compound 44]: the “POC ligand binding, STK16” value came to 70 POC.

For the molecule `N#Cc1ccc2ncnc(NCCc3ccc4ccccc4c3)c2c1` [compound 26], the “POC ligand binding, STK16” value is given as 16 POC.

Regarding `CC(C)CNc1ncnc2ccc(C(F)(F)F)cc12` [compound 45], the “POC ligand binding, STK16” value came out at 17 POC.

On to `CCCNc1ncnc2ccc(N3CCOCC3)cc12` [compound 46], for which the “POC ligand binding, STK16” value amounted to 80 POC.

The experiment is the same for the next values; noted with them: 10 μM compound; 10 µM.
Consider `N#Cc1ccc2ncnc(NCc3ccc4ccccc4c3)c2c1` [compound 43], for which the “POC ligand binding, STK16” value was determined as 30 POC.

Consider `N#Cc1ccc2ncnc(NCc3ccc4ccccc4c3)c2c1` [compound 14], for which the “POC ligand binding, STK16” value worked out at 2.4 POC.
